Data reported in paper PMC8294803, “A Roadmap to the Structure-Related Metabolism Pathways of Per- and Polyfluoroalkyl Substances in the Early Life Stages of Zebrafish (Danio rerio)” (Environmental Health Perspectives, 2021).
Several values for one entry are separate records, joined by “and”; a condition that tells them apart may be missing. Equal entries are not always repeated. Entries after “also recorded” stand apart in the source; their conditions may differ. Where two headings read alike, the source gives them in different places.

Legend:
[1] = tested on: zebrafish larvae; test: Bioconcentration factors (BCF) of PFAS in zebrafish larvae; settings: zebrafish larvae; for BCF 0.5µM: 0.5 µM exposure; for BCF 0.5µM / BCF 5µM: 120 hpf, three replicates; for BCF: exposure concentration not given; for BCF 5µM: 5 µM exposure
Protocol: (§1) Zebrafish embryos were collected immediately after spawning, within 1 h, and subsequently transferred to 24-well plates with 1mL of facility water ( 0.036g sea salt, 0.15g sodium bicarbonate in 2L of reverse osmosis water). […] Three well replicates on the same plate were conducted for each concentration of individual chemical. […] Seven batches of experiments were performed to test all 74 PFAS. DMSO controls were incorporated in each batch of exposure experiments. Three replicates were performed for each treatment group, and 20 embryos were used for each replicate. […] For daily replenishment, 2.5mL of old exposure medium were replaced with freshly prepared medium every 24 h from 24 to 96 h post fertilization (hpf). Hatched or dead embryo numbers were recorded every 24 hpf, after which dead embryos were discarded from the growth media. Dead embryos or unhatched embryos were not used for PFAS measurement because the metabolism of PFAS might have been impacted. Zebrafish larvae collection occurred at 120 hpf. First, the larvae were anesthetized by cooling the plate in ice water (0–4°C) for ∼20 min . Then 8–15 larvae in each well were transferred into 1.5-mL tubes. Exposure media was carefully removed, and then the larvae were weighed (wet weight) after blotting excess water with a paper towel. […] Samples were stored at −80 °C until further chemical analysis was performed. Survival rate and hatching rate were calculated by summarizing all the documented data from the whole treatment duration. […] The exposure experiment of PFOSA was repeated using the same procedure as described above.
(§2) Each sample was spiked with 2μL of 0.2μg/mL mass-labeled PFAS mixture. Following this, 500μL of dichloromethane/methanol (2:1, vol/vol) was added to each sample for PFAS extraction. Larvae were then homogenized via ultrasonic probe, followed by 30 min of shaking and 30 min of sonication. Each sample was centrifuged at 14,000×g for 5 min, after which the supernatant was transferred to new tubes. Extraction was repeated once and the two supernatants were combined, evaporated under nitrogen flow, and reconstituted in 200μL of methanol for MS analysis.
(§3) Three microliters of each zebrafish extract was applied to a C18 column ( 1.5μm; 2.1mm×50mm; Thermo Scientific) and analyzed using a Vanquish ultra-HPLC system (Thermo Fisher Scientific) coupled to a Q Exactive high-resolution mass spectrometer (Thermo Fisher Scientific). The sampler and column compartments were maintained at 4°C and 40°C, respectively. The aqueous mobile phase solution (A) consisted of water, whereas the organic mobile phase solution (B) consisted of acetonitrile. […] MS data was acquired in full scan mode (100–1000 m/z, 70,000 mass resolution, 3×10^6 maximum ions collected per 100 ms), and tandem MS (MS/MS) data was recorded by all-ion fragmentation (AIF) mode. Negative and positive ion modes were carried out simultaneously at a 10-min method duration. […] An overview of the analyses conducted on the various PFAS is available in Table S2.
GraphPad Prism (version 7.0.4; GraphPad Software) and R studio (version 1.1.456; R Studio Inc.) software was used, and an ANOVA with Dunnett tests was employed to evaluate the statistical significance of the percentage hatched and mortality rate. Exponential regressions were used to determine the relationships between bioconcentration factor (BCF) and binding affinities ( Kd ) to L-FABP.

[2] = biological target: liver fatty acid binding protein (L-FABP); design: method as in Yang et al. 2020; settings: ref Yang et al. 2020, cited from earlier work
[3] = biological target: T1, recombinant human liver carboxylesterase 1 (hCES1) (Homo sapiens, UniProt P23141); test: Hydrolysis of PFAS by recombinant hCES1; format: in vitro ADME; settings: for Parent PFAS, hCES1 (%) / Parent PFAS, Control (%): 10 μM PFAS, single replicates; for Parent PFAS, hCES1 (%): 100 μg/L hCES1, phosphate buffer 37 °C 1 hour, axis %Control; for Parent PFAS, Control (%): without hCES1, phosphate buffer 37 °C 1 hour; for Concentration of hydrolysis product: from 10μM of parent, 100μg/L hCES1, 37°C; for concentration of corresponding hydrolysis product detected from parent PFAS, hCES1 / concentration of corresponding hydrolysis product detected from parent PFAS, Control: 10 µM parent PFAS, three replicates; for concentration of corresponding hydrolysis product detected from parent PFAS, hCES1: incubated with hCES1; for concentration of corresponding hydrolysis product detected from parent PFAS, Control: vehicle control group without hCES1
T1 construct: purchased Sigma Aldrich
T1 sequence (P23141 18-567): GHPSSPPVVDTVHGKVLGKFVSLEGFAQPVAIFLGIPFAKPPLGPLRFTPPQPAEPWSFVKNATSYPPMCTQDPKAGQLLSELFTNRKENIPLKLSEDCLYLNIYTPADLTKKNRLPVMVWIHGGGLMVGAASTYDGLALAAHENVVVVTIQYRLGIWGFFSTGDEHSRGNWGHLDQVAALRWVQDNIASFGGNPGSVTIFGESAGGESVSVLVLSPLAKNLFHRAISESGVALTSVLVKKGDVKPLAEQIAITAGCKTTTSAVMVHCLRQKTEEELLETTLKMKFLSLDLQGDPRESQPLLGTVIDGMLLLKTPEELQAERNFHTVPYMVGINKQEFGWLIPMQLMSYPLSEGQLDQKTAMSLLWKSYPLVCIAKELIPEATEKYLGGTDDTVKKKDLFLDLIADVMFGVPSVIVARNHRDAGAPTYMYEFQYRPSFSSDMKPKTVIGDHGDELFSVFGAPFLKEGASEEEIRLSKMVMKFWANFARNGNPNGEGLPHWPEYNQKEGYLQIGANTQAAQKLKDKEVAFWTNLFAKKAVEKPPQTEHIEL
Protocol: Because recombinant zebrafish CES is not available, we decided to use hCES1 to evaluate the structure-related hydrolysis of PFAS. […] In vitro enzymatic activity experiments were carried out for 1 h in 1.5-mL tubes with 100μL phosphate buffer ( 137 mM sodium chloride, 10 mM phosphate buffer, 2.7 mM potassium chloride; pH 7.4) at 37°C with shaking. Reaction mixtures contained different concentrations of PFAS (1, 10, and 50μM ) and 100μg/L hCES1. […] To stop the hydrolysis reaction, four times the volume of ice-cold methanol was added. The hCES1 protein was precipitated out by centrifugation ( 14,000×g , 10 min). The supernatant was transferred to a new tube and analyzed via MS for the analysis of parent compounds and suspected metabolites (i.e., carboxylates).

[4] = tested on: zebrafish embryos; settings: for pericardial oedemata, Mean / spinal curvature, Mean / tail dysplasia, Mean: 5μM through 120 hpf, malformation rate; for Lethal effects on zebrafish larvae: 5μM, 5 d; for Mortality (%): 5 µM, exposure through 120 hpf
[5] = tested on: zebrafish larvae; test: Nontargeted analysis of PFAS metabolites in zebrafish larvae (high-resolution MS); settings: for Metabolites / hydrolysis products in zebrafish larvae: in vivo, nontargeted analysis; for Profile of metabolites (%): Alcohol / Peak intensity: Alcohol (parent FTOH): zebrafish larvae; for Profile of metabolites (%): Alcohol: Figure 5B; for Peak intensity: Alcohol (parent FTOH): single replicates, Figure 5A
Protocol: as §1, §2, §3
Nontargeted data analysis was accomplished with R scripts that are available on Github (https://github.com/huiUofT/PFASmetabolite). […] The peak features were matched across samples with a mass tolerance of 2.5 ppm and a RT window of 20 s, after RT adjustment. The ratio of abundances of each feature in treatment groups relative to the control group (DMSO) was calculated. The p -values of the difference between two groups were determined by student’s t -tests.

Row | Compound | BCF 0.5µM [1] | Kd ([2]; read-out: Kd (μM), L-FABP binding affinity) [µM] | Parent PFAS, hCES1 (%) [3] | Parent PFAS, Control (%) [3] | pericardial oedemata, Mean [4] [%] | spinal curvature, Mean [4] [%] | tail dysplasia, Mean [4] [%] | Lethal effects on zebrafish larvae [4] | Lethal effects on zebrafish larvae ([4]; listed as PFOSA) | Mortality (%) [4] [%] | Metabolites / hydrolysis products in zebrafish larvae [5] | Concentration of hydrolysis product [3] | BCF [1] [L/kg] | Profile of metabolites (%): Alcohol [5] [%] | Peak intensity: Alcohol (parent FTOH) [5] | BCF 5µM [1] [L/kg] | L-FABP ligand [2] | concentration of corresponding hydrolysis product detected from parent PFAS, hCES1 [3] [nM] | concentration of corresponding hydrolysis product detected from parent PFAS, Control [3] [nM] | BCF at 0.5μM compared with 5μM [1]
1 | NS(=O)(=O)C(F)(F)C(F)(F)C(F)(F)C(F)(F)C(F)(F)C(F)(F)C(F)(F)C(F)(F)F [compound 60, Perfluorooctanesulfonamide] | 501 ± 19 L/kg and 501.032 L/kg | 5.87 | 83.48% and 89.94% and 97.43% | 81.21% and 101.71% and 117.08% | 0.00 | 0.00 | 0.00 | strongest lethal effects | no zebrafish larvae from the 5-μM group survived; also recorded: All zebrafish larvae were dead | 100 | – | – | – | – | – | – | – | – | – | –
2 | COC(=O)C(F)(F)C(F)(F)C(F)(F)C(F)(F)C(F)(F)F [compound 36, Methyl perfluorohexanoate] | – | – | – | – | 1.11 | 0.00 | 0.00 | – | – | 4.4 | metabolites were not detected | not detected | – | – | – | – | – | – | – | –
3 | NC(=O)C(F)(F)C(F)(F)C(F)(F)C(F)(F)C(N)=O [compound 58, Octafluoroadipamide] | – | – | 97.41% and 90.44% and 135.26% | 83.59% and 76.79% and 139.62% | 1.11 | 1.11 | 0.00 | – | – | 6.7 | metabolites were not detected; also recorded: no metabolite was detected | not detected | < 10 | – | – | – | – | – | – | –
4 | OCCC(F)(F)C(F)(F)C(F)(F)C(F)(F)C(F)(F)C(F)(F)F [compound 70, 6:2 Fluorotelomer alcohol] | – | – | – | – | 0.00 | 0.00 | 0.00 | – | – | 0 | – | – | – | 0.00 | 0 | – | – | – | – | –
5 | NC(=O)C(F)(F)C(F)(F)C(F)(F)F [compound 31, Heptafluorobutyramide] | – | – | 88.80% and 125.28% and 71.56% | 98.24% and 100.70% and 101.05% | 0.00 | 0.00 | 0.00 | – | – | 2.2 | high abundances of metabolized carboxylates were detected | – | < 10 | – | – | – | – | – | – | –
6 | OCC(F)(F)C(F)(F)C(F)(F)C(F)(F)C(F)(F)C(F)F [compound 67, Dodecafluoroheptanol] | – | – | – | – | 1.11 | 0.00 | 0.00 | – | – | 0 | – | – | – | 0.00 | 0 | – | – | – | – | –
7 | CNS(=O)(=O)C(F)(F)C(F)(F)C(F)(F)C(F)(F)C(F)(F)C(F)(F)C(F)(F)C(F)(F)F [compound 16, N-Methylperfluorooctanesulfonamide] | 292.232 L/kg | – | 89.36% and 92.00% and 92.59% | 93.34% and 78.46% and 128.20% | 0.00 | 0.00 | 0.00 | strongest lethal effects | – | – | – | – | – | – | – | 89 ± 9.4 | not identified as L-FABP ligands | – | – | –
8 | 2,2-Difluoroethyl triflate [compound 13] | – | – | – | – | 2.22 | 0.00 | 1.11 | – | – | 2.2 | metabolites were not detected | not detected | – | – | – | – | – | 0 | 0 | –
9 | COC(=O)C(F)(F)C(F)(F)C(F)(F)F [compound 47, Methyl heptafluorobutyrate] | – | – | – | – | 2.22 | 1.11 | 0.00 | – | – | 0 | metabolites were not detected | not detected | – | – | – | – | – | – | – | –
10 | 2-(Trifluoromethoxy)ethyl trifluoromethanesulfonate [compound 10] | – | – | – | – | 2.22 | 1.11 | 0.00 | – | – | 0 | metabolites were not detected | not detected | – | – | – | – | – | 0 | 0 | –
11 | OCC(F)(F)OC(F)(F)C(F)(F)OC(F)(F)CO [compound 32, 1H,1H,8H,8H-Perfluoro-3,6-dioxaoctane-1,8-diol] | 5.939 L/kg | – | – | – | 1.11 | 0.00 | 1.11 | – | – | 3.3 | – | – | – | 48.26 | 13344387 and 7489514 and 11717785 | 8.4 ± 1.1 | – | – | – | comparable or even higher BCFs at 5μM
12 | C=C(C)C(=O)OCCC(F)(F)C(F)(F)C(F)(F)C(F)(F)C(F)(F)C(F)(F)F [compound 2, 6:2 Fluorotelomer methacrylate] | – | – | – | – | 3.33 | 1.11 | 4.44 | – | – | 0 | hydrolysis products (i.e., sulfated 6:2 FTOH) were also detected | – | – | – | – | – | – | – | – | –
